Test results reported in paper PMC5827777, “Synthesis and biological evaluation of RGD and isoDGR peptidomimetic-α-amanitin conjugates for tumor-targeting” (Beilstein Journal of Organic Chemistry, 2018).

Columns and labels:
αVβ5 receptor [1] = test: Inhibition of biotinylated vitronectin binding to αVβ5 receptor; details: ratio of IC50 values of Table 1
[2] = target: T1, Recombinant human integrin αVβ3 (Homo sapiens, UniProt P05106+P06756); parameters: method as in PMID 22517378, PMID 23424096; details: free ligands, Table 1; mean ± SD of triplicate determinations; read-out: IC50 αVβ3, inhibition of biotinylated vitronectin binding; cited from earlier work
T1 construct: purchased R&D Systems, Minneapolis, MN, USA

αVβ5 receptor [3] = target: αVβ5 receptor; parameters: method as in PMID 22517378, PMID 23424096; details: free ligands, Table 1; mean ± SD of triplicate determinations; read-out: IC50 αVβ5, inhibition of biotinylated vitronectin binding; cited from earlier work

T1 sequence (P06756 31-992 limits assumed): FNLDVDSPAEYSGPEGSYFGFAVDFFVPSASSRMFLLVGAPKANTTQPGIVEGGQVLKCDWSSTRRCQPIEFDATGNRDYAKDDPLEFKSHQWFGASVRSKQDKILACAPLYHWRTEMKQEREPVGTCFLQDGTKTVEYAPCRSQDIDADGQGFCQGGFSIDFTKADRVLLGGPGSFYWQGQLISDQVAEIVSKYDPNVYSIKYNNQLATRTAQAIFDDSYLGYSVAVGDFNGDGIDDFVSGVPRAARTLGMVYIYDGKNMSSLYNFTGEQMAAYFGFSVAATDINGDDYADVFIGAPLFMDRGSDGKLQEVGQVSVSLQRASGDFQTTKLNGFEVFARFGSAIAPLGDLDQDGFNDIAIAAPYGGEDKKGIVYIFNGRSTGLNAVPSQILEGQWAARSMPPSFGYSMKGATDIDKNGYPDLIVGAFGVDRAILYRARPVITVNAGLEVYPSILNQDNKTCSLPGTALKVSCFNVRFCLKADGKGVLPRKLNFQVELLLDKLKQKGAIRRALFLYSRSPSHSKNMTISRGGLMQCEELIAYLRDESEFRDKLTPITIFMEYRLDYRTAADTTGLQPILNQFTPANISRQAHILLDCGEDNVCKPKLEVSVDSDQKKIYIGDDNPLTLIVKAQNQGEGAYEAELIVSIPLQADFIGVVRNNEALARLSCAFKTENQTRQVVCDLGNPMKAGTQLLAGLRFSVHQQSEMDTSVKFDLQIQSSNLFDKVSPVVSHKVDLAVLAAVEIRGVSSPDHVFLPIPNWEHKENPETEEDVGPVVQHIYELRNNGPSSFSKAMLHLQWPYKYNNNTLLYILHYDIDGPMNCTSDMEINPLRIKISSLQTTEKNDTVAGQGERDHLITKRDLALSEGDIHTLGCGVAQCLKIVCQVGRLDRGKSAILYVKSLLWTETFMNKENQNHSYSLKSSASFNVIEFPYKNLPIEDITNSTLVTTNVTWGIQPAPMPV
T1 sequence (P05106 27-718 limits assumed): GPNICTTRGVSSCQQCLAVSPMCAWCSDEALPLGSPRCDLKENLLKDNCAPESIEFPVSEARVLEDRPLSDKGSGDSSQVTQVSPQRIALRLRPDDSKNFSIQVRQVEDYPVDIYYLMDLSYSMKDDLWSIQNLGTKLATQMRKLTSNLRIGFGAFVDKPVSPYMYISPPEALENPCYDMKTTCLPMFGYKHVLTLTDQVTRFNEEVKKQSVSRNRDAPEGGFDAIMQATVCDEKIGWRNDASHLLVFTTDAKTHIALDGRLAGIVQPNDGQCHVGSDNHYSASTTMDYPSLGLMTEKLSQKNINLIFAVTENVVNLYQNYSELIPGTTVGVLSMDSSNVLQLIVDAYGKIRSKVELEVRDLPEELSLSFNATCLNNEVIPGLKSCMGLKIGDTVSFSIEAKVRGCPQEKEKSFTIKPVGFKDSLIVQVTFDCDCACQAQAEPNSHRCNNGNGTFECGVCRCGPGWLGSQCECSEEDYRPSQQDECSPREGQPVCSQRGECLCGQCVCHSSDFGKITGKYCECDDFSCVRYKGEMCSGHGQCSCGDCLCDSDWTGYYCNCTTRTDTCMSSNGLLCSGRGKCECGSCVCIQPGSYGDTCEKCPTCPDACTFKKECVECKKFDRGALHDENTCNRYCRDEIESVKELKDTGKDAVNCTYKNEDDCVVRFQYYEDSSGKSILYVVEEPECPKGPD

N=C(N)NCCC[C@@H]1NC(=O)CNC(=O)C[C@@H](C(=O)O)NC(=O)C[C@H]2NC(=O)[C@H](CNC1=O)N(Cc1ccccc1)C2=O [Ligand 3, cyclo[DKP-isoDGR]]
selectivity for αVβ3 in comparison with integrin αVβ5 (αVβ5 receptor [1]): 33–34 times | IC50 [2]: 9.2 ± 1.1 nM | IC50 (αVβ5 receptor [3]): 312 ± 21 nM
